Reference: ChEMBL document CHEMBL4184252, “Synthesis of novel multivalent fluorescent inhibitors with high affinity to prostate cancer and their biological evaluation” (Bioorg Med Chem Lett, 2018)

Experiments:
[1] = Drug distribution in liver of BALB/c nude mouse xenografted with human 22Rv1 cells at 10 nmol, iv measured 1 to 24 hrs after post dose co-treated with 1 umol DCIBZL by fluorescence imaging method; assay type: ADME, organism-based; settings: in vivo
[2] = Drug distribution in tumor of BALB/c nude mouse xenografted with human 22Rv1 cells at 10 nmol, iv measured 1 to 24 hrs after post dose by fluorescence imaging method; assay type: ADME, organism-based, Neoplasm; settings: in vivo
[3] = Drug distribution in heart of BALB/c nude mouse xenografted with human 22Rv1 cells at 10 nmol, iv measured 1 to 24 hrs after post dose by fluorescence imaging method; assay type: ADME, organism-based; settings: in vivo
[4] = Drug distribution in liver of BALB/c nude mouse xenografted with human 22Rv1 cells at 10 nmol, iv measured 1 to 24 hrs after post dose by fluorescence imaging method; assay type: ADME, organism-based; settings: in vivo
[5] = molecular target: Glutamate carboxypeptidase 2 (Homo sapiens, UniProt Q04609); assay: Inhibition of PSMA in human LNCaP cell lysates incubated for 2 hrs in presence of N-acetylaspartylglutamate by Amplex red glutamic acid/glutamate oxidase assay
[6] = Drug distribution in lung of BALB/c nude mouse xenografted with human 22Rv1 cells at 10 nmol, iv measured 1 to 24 hrs after post dose by fluorescence imaging method; assay type: ADME, organism-based; settings: in vivo
[7] = Drug distribution in spleen of BALB/c nude mouse xenografted with human 22Rv1 cells at 10 nmol, iv measured 1 to 24 hrs after post dose by fluorescence imaging method; assay type: ADME, organism-based; settings: in vivo
[8] = Drug distribution in muscle of BALB/c nude mouse xenografted with human 22Rv1 cells at 10 nmol, iv measured 1 to 24 hrs after post dose by fluorescence imaging method; assay type: ADME, organism-based, Muscle tissue; settings: in vivo
[9] = Drug distribution in tumor of BALB/c nude mouse xenografted with human 22Rv1 cells at 10 nmol, iv measured 1 to 24 hrs after post dose co-treated with 1 umol DCIBZL by fluorescence imaging method; assay type: ADME, organism-based, Neoplasm; settings: in vivo

Glutamate carboxypeptidase 2, sequence (Q04609 whole entry): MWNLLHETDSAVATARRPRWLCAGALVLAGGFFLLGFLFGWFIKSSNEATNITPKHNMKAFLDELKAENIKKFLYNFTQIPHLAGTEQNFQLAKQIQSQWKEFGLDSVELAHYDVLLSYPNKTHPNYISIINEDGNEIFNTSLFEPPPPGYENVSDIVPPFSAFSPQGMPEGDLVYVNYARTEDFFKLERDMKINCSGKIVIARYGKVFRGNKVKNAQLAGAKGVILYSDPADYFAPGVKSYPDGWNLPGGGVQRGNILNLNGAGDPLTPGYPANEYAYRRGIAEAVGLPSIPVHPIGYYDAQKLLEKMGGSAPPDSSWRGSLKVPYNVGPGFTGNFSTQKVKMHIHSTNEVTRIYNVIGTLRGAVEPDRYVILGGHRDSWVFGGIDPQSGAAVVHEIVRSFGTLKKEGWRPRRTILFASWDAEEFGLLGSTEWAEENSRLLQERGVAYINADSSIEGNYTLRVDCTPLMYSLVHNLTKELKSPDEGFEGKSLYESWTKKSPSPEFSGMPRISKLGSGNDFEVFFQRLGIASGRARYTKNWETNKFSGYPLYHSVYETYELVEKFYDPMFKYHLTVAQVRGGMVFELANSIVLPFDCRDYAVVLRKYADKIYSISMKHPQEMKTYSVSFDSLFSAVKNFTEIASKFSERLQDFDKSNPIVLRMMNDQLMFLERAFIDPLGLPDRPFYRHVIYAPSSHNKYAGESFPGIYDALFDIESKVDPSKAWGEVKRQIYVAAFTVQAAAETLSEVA

Drug uptake [1] | Drug uptake [2] | Drug uptake [3] | Drug uptake [4] | Ki [5] [pM] | Drug uptake [6] | Drug uptake [7] | Drug uptake [8] | Drug uptake [9] | Compound
Not Active | Active | Not Active | Active | 580 | Not Active | Not Active | Not Active | Not Active | CCN1/C(=C/C=C/C=C/C2=[N+](CCCCCC(=O)NCCCC(=O)NCCCC[C@H](NC(=O)N[C@@H](CCC(=O)O)C(=O)O)C(=O)O)c3ccc4c(S(=O)(=O)[O-])cc(S(=O)(=O)O)cc4c3C2(C)C)C(C)(C)c2c1ccc1c(S(=O)(=O)O)cc(S(=O)(=O)O)cc21
 | Active | Not Active | Active | 380 | Not Active | Not Active | Not Active |  | CCN1/C(=C/C=C/C=C/C2=[N+](CCCCCC(=O)NCCCN(CC(=O)Nc3ccc(C(=O)NCCCC[C@H](NC(=O)N[C@@H](CCC(=O)O)C(=O)O)C(=O)O)cc3)CC(=O)Nc3ccc(C(=O)NCCCC[C@H](NC(=O)N[C@@H](CCC(=O)O)C(=O)O)C(=O)O)cc3)c3ccc4c(S(=O)(=O)[O-])cc(S(=O)(=O)O)cc4c3C2(C)C)C(C)(C)c2c1ccc1c(S(=O)(=O)O)cc(S(=O)(=O)O)cc21
Not Active | Active | Not Active | Not Active | 140 | Not Active | Not Active | Not Active | Not Active | CCN1/C(=C/C=C/C=C/C2=[N+](CCCCCC(=O)NCCCC(=O)N[C@@H](CCC(=O)NCCCC[C@H](NC(=O)N[C@@H](CCC(=O)O)C(=O)O)C(=O)O)C(=O)NCCCC[C@H](NC(=O)N[C@@H](CCC(=O)O)C(=O)O)C(=O)O)c3ccc4c(S(=O)(=O)[O-])cc(S(=O)(=O)O)cc4c3C2(C)C)C(C)(C)c2c1ccc1c(S(=O)(=O)O)cc(S(=O)(=O)O)cc21
